Assay results published in patent publication US20260191827A1, “COMPOUNDS FOR USE IN THE TREATMENT OF DISEASES AND CONDITIONS ASSOCIATED WITH NEURODEGENERATIVE DYSFUNCTION” (OnTrack Therapeutics Limited, priority 2022, published 2026).
Counter-ions that a name gives are not always drawn.

Tests used:
[1] = tested on: scopolamine-induced cognitive deficit in mice; assay: Scopolamine-induced cognitive deficit, T-maze spontaneous alternation
Procedure: 60 male CD-1 mice (Janvier; Le Genest St Isle—France) were used for the study, with 10 animals per group.
Animals in the API groups were pre-treated (p.o.) once a day for 30 days, the last treatment was given 1 h before the T-maze test.
Compound of Formula I or its vehicle was administered at 5 ml/kg using p.o. route. The vehicle was 5% DMSO/0.5% methylcellulose in water. Fresh compound solution was prepared daily as following: the required amount of compound will be dissolved in 100% DMSO and then the required amount of 0.5% methylcellulose in water was added.
On the day of the T-maze, the last treatment was given 1 h before the task.
Donepezil (donepezil hydrochloride) was prepared in saline at a concentration of 0.03 mg/ml and was given p.o. at a dosage volume of 10 ml/kg 1 h before the T-maze trial start.
Scopolamine was prepared in saline (vehicle) at a concentration of 0.089 mg/ml (free base) and was given i.p. at a dosage volume of 10 ml/kg 30 min before the T-maze trial start.
The T-maze consists of 2 choice arms and 1 start arm mounted to a square centre. Sliding doors are provided to close specific arms during the force choice alternation task.
The experimental protocol consists of one single session, which starts with 1 “forced-choice” trial, followed by 14 “free-choice” trials. In the first “forced-choice” trial, the animal was confined for 5 s in the start arm and then was released while either the left or right goal arm was blocked by closing the sliding door. The animal then negotiated the maze, and eventually entered the open goal arm, and returned to the start position.
Immediately after the return of the animal to the start position, the left or right goal door was opened, and the animal was allowed to choose freely between the left and right goal arm (“free choice trials).
The animal was considered to have entered an arm when it placed its four paws in the arm.
A session was terminated, and the animal was removed from the maze as soon as 14 free-choice trials had been performed or 10 min have elapsed, whatever event occurred first.
The percentage of spontaneous alternations were calculated as number of spontaneous alternations divided by 14 possible free choice.
Statistical analysis was assessed using Anova followed by Fischer's Protected Least Significant Difference for pairwise comparison. p level <0.05 was deemed significant.

[2] = tested on: scopolamine-induced impairment in cognition; conditions: normal healthy humans, donepezil 10 mg; cited from earlier work
[3] = tested on: sub-chronic PCP-induced deficits in recognition memory in rats; assay: Sub-chronic PCP-induced deficit in novel object recognition (NOR) paradigm; conditions: for Acquisition total exploration time / Retention total exploration time: mean ± s.e.m.
5XFAD mice = conditions: repeated administration, WO2020/033604; cited from earlier work
[4] = tested on: animal model of Alzheimer's disease; conditions: low dose; Chen et al., 2021; cited from earlier work
[5] = biological target: tropomyosin receptor kinase B (TrkB) (Homo sapiens, UniProt Q16620); conditions: known from background; cited from earlier work
[6] = 20-day phase (day 20), scPCP rats, acute risperidone 0.1 mg/kg i.p. 60 min before test
[7] = acute phase (day 1), scPCP rats, risperidone 0.1 mg/kg i.p. 60 min before test
[8] = 20-day once-daily treatment, scPCP rats, 10 mg/kg p.o.
[9] = 20-day once-daily treatment, scPCP rats, 30 mg/kg p.o.
[10] = acute treatment, scPCP rats, 10 mg/kg p.o. 120 min before test
[11] = acute treatment, scPCP rats, 30 mg/kg p.o. 120 min before test

Sequence of tropomyosin receptor kinase B (TrkB) (Q16620 32-822, species assumed): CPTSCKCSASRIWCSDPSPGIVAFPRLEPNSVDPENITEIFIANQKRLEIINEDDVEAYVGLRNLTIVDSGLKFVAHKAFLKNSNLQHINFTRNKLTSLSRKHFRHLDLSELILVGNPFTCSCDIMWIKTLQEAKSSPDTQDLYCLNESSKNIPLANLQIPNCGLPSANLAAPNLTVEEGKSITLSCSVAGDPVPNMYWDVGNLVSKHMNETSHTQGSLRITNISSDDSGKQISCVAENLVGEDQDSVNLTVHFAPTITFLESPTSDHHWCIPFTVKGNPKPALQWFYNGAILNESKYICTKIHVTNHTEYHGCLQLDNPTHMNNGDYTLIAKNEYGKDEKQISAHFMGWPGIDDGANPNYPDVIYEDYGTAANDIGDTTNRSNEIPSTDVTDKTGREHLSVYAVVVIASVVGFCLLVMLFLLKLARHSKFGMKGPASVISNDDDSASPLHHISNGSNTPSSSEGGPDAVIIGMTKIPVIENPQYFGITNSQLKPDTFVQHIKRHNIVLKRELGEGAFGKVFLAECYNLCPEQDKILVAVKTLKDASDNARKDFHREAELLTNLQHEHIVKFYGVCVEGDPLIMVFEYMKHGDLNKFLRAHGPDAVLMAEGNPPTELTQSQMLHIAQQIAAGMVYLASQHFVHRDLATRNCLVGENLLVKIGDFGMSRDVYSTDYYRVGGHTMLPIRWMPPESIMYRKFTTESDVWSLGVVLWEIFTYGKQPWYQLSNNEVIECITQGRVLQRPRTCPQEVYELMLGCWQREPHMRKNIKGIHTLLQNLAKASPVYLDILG

COc1cc2c(cc1OC)C(=O)C(CC1CCN(Cc3ccccc3)CC1)C2 (stereo not drawn) [Donepezil, donepezil hydrochloride, reference compound]
Spontaneous alternation (%) ([1]; Scopolamine 0.89 mg/kg i.p., Donepezil 0.3 mg/kg p.o. 1 h before T-maze, hydrochloride): 65.0%
Spontaneous alternation (%) ([1]; Scopolamine 0.89 mg/kg i.p., Donepezil 0.3 mg/kg p.o. 1 h before T-maze, listed as donepezil, hydrochloride): 65%
effect on scopolamine-induced decline in cognitive function ([1]; donepezil 0.3 mg/kg, statistically significant): ameliorated
scopolamine-induced impairment in cognition (power of attention, continuity of attention, quality of working memory, speed of memory) [2]: significantly attenuated

Cc1nc2n(c(=O)c1CCN1CCC(c3noc4cc(F)ccc34)CC1)CCCC2 [Risperidone, risperidone, reference compound]
Acquisition total exploration time [3, 6]: 25.5 ± 3.4 s
Retention total exploration time [3, 6]: 17.8 ± 1.1 s
Acquisition total exploration time [3, 7]: 22.81 ± 4.03 s
Retention total exploration time [3, 7]: 23.10 ± 2.92 s
discrimination index (DI) ([3]; acute phase, risperidone 0.1 mg/kg i.p., versus scPCP without treatment and test compound (FIG. 4)): higher
rescue of deficits induced by scPCP in NOR ([3]; risperidone dosed acutely): able to rescue the deficits induced by scPCP

N#Cc1ccc(-c2cc(=O)c3ccc4[nH]c(C(F)(F)F)nc4c3o2)cc1 [compound of Formula I, 4-(6-oxo-2-(trifluoromethyl)-3,6-dihydrochromeno [7,8-d]imidazol-8-yl)benzonitrile]
spontaneous alternations in comparison to vehicle in scopolamine-treated mice ([1]; 30 days treatment prior to scopolamine, statistically significant): increased percentage of spontaneous alternations
Spontaneous alternation (%) ([1]; Saline (healthy mice), Compound of Formula I high dose 10 mg/kg p.o. once a day for 30 days, 10 mg/kg): 64%
Spontaneous alternation (%) ([1]; Saline (healthy mice), Compound of Formula I high dose 10 mg/kg p.o. once a day for 30 days, listed as Compound of Formula I, 10 mg/kg): 64.3%
Spontaneous alternation (%) ([1]; Scopolamine, Compound of Formula I high dose 10 mg/kg p.o. once a day for 30 days, 10 mg/kg): 56%
Spontaneous alternation (%) ([1]; Scopolamine, Compound of Formula I high dose 10 mg/kg p.o. once a day for 30 days, listed as Compound of Formula I, 10 mg/kg): 55.7%
Spontaneous alternation (%) ([1]; Scopolamine, Compound of Formula I low dose 5 mg/kg p.o. once a day for 30 days, 5 mg/kg): 56%
Spontaneous alternation (%) ([1]; Scopolamine, Compound of Formula I low dose 5 mg/kg p.o. once a day for 30 days, listed as Compound of Formula I, 5 mg/kg): 55.7%
effect on cognition in healthy animals ([1]; healthy mice, 10 mg/kg, 30 days): did not impair cognition in healthy animals
synaptic loss (5XFAD mice): able to prevent synaptic loss
dose effect in Alzheimer's disease animal model [4]: saturation effect
Acquisition total exploration time [3, 8]: 24.6 ± 3.4 s
Retention total exploration time [3, 8]: 19.0 ± 1.4 s
Acquisition total exploration time [3, 9]: 26.1 ± 3.1 s
Retention total exploration time [3, 9]: 20.8 ± 1.2 s
discrimination index (DI) ([3]; 20-day treatment, 30 mg/kg, compared to animals without treatment, P<0.015 (FIG. 8)): statistically significant increase
amount of time spent exploring the familiar and novel object in the retention trial ([3]; 20-day treatment, scPCP rats, 10 & 30 mg/kg p.o., P<0.01 (FIG. 7)): dose dependent statistically significant effect
Acquisition total exploration time [3, 10]: 21.75 ± 2.46 s
Retention total exploration time [3, 10]: 22.55 ± 1.60 s
Acquisition total exploration time [3, 11]: 25.49 ± 3.04 s
Retention total exploration time [3, 11]: 26.18 ± 2.11 s
amount of time exploring the novel or familiar object in the retention trial ([3]; acute treatment, scPCP rats, 10 & 30 mg/kg p.o. (FIG. 3)): not shown to have a difference
rescue of deficits induced by scPCP in NOR ([3]; dosing for a 20-day period): able to rescue the scPCP in a dose dependent manner

O=c1cc(-c2ccccc2)oc2c(O)c(O)ccc12 [tropoflavin, 7,8-dihydroxyflavone]
TrkB activity [5]: potent and selective agonist
